Measurements taken from patent publication US12729221B2, “Anti-inflammatory peptide and use thereof” (MITO QUEST CO., LTD., priority 2020, dated 2026).
pKd: −log10 of the molar value. Where no end group is shown, it is not given here.

How the values were obtained:
interferon-beta (IFN-b) = test: polyIC-induced IFN-b expression in MLE-12 cells, ELISA; assay type: cell-based, mouse; conditions: 5 mg/ml polyIC, 16 hours, 25 mM or 2 mM peptide, FIG. 9A
Method: Specifically, polyinosinic:polycytidylic acid (polyIC), which is a synthetic ribonucleic acid known to be associated with viral infection among the PAMPs and promotes the production of interferon and is analogous to an RNA virus gene, was used to induce a viral infection response. First, a serum-free cell culture medium containing 5 mg/ml polyIC and MQP-15, MQP-23, MQP-31, MQP-37, MQP-Y9 or MQP-T234 was treated with 1×10^5 cells of a mouse lung epithelial cell line (MLE-12) for 16 hours. Then, the supernatant was obtained and the expression level of interferon-beta (IFN-b) was checked by enzyme-linked immunosorbent assay (ELISA).
(§1) Specifically, LPS and ATP were used to induce an inflammasome response caused by bacterial infection, and polyIC was used to induce an inflammatory response caused by viral infection. First, 1 mg/ml LPS and 5 mM or 1 mM novel alanine-substituted peptide were mixed in a serum-free cell culture medium, followed by treatment with 1×10^5 cells of IC21. Thereafter, 5 mM ATP and 5 mM or 1 mM novel alanine-substituted peptide were mixed in a serum-free cell culture medium and treated for 30 minutes. Then, the supernatant was obtained and the expression level of IL-1b was checked by ELISA. Also, 5 mg/ml polyIC and 25 mM or 2 mM novel alanine-substituted peptide were mixed in a serum-free cell culture medium, followed by treatment with 1×10^5 cells of MLE-12 for 16 hours. Thereafter, the supernatant was obtained and the expression level of IFN-b was checked by ELISA.
as §1, with “2” for “5 mM or 1”, “amino acid-substituted” for “alanine-substituted”, “and” for “and 25 mM or”
Specifically, polyIC was used to induce a viral infection response. First, a serum-free cell culture medium containing 5 mg/ml polyIC and MQP-37, MQP-37A6, MQP-37D6W, MQP-37D6Y, MQP-37D6H, MQP-37D6K, MQP-37D6R or MQP-37D6V was treated with 1×10^5 cells of MLE-12 for 16 hours. Then, the supernatant was obtained and the expression level of IFN-b was checked by ELISA.

interleukin-6 (IL-6) = test: LPS-induced IL-6 expression in IC21, ELISA; assay type: cell-based, mouse; conditions: 0.1 mg/ml LPS, 6 hours, FIG. 12A-A
Method: Specifically, LPS was used to induce an inflammatory response caused by bacterial infection. First, MQP-15, MQP-23, MQP-31, MQP-37 or MQP-Y9 was added to a serum-free cell culture medium containing 0.1 mg/ml LPS, followed by treatment with 1×10^5 cells of IC21 for 6 hours. Then, the supernatant was obtained and the expression levels of interleukin-6 (IL-6) and a tumor necrosis factor-alpha (TNF-a) were checked by ELISA.

NF-κB = test: LPS-induced phosphorylation of NF-kB in IC21, Western blot; assay type: cell-based, mouse; conditions: LPS, Western blot, FIGS. 12B-D to 12B-F
From the text: Specifically, LPS was used to induce an immune activation response caused by bacterial infection, and the phosphorylation of nuclear factor kappa-light-chain-enhancer of activated B cells (NF-kB) was checked to identify the mechanism of the immune activation response. […] Thereafter, the cells were washed with a PBS solution and then lysed with a RIPA buffer, and the supernatant was separated. In order to measure the change in the phosphorylation amount of NF-κB protein with the separated supernatant, the Western blot was performed as in Example 2.

IL-1b = test: LPS/ATP-induced IL-1b expression (inflammasome response) in IC21, ELISA; assay type: cell-based, mouse; conditions: 1 mg/ml LPS, 5 mM ATP 30 minutes
Method: as §1
as §1, with “2” for “5 mM or 1”, “amino acid-substituted” for “alanine-substituted”, “and” for “and 25 mM or”
Specifically, LPS was used to induce an inflammatory response caused by bacterial infection. First, MQP-37 or MQP-37A6 was added to a serum-free cell culture medium containing 0.1 mg/ml LPS, followed by treatment with 1×10^5 cells of IC21 for 6 hours. Then, the supernatant was obtained and the expression level of IL-6 was checked by ELISA. Also, the Western blot was performed and the phosphorylation of NF-κB was checked to identify the mechanism of immune activation response. Thereafter, LPS and ATP were used to induce an inflammasome response caused by bacterial infection, LPS and ATP were used. First, 1 mg/ml LPS and L- or D-MQP-37 and MQP-37A6 were mixed in a serum-free cell culture medium and treated with 1×10^5 cells of IC21. Then, 5 mM ATP and MQP-37 or MQP-37A6 were mixed in a serum-free cell culture medium and treated for 30 minutes. Thereafter, the supernatant was obtained and the expression level of IL-1b was checked by ELISA.

recombinant MAVS protein = recombinant MAVS protein (Homo sapiens, UniProt Q7Z434); test: Binding of fluorescence-labeled peptides to plate-coated recombinant MAVS protein
Chain of recombinant MAVS protein (Q7Z434 whole entry, species assumed): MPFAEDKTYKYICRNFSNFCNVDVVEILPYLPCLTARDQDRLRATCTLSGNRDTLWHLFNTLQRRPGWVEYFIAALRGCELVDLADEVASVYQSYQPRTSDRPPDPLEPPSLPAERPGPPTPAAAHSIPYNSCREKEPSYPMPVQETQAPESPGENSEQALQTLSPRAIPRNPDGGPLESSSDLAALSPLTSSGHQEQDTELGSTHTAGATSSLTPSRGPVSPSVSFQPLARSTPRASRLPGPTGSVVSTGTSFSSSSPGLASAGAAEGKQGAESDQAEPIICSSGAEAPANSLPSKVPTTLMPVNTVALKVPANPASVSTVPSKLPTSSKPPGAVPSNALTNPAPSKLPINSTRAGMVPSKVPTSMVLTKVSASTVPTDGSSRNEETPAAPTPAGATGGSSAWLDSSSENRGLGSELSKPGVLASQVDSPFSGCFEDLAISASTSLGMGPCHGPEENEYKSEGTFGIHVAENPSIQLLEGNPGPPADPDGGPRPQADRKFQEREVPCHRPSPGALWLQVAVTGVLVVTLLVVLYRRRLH
Method: Specifically, recombinant MAVS protein and fluorescence-labeled peptides MQP-37 and MQP-37A6 were used to check the binding affinity to the MAVS protein. First, 250 ng of recombinant MAVS protein was coated on a 96-well plate for ELISA, followed by blocking with 1% BSA/PBS solution. Thereafter, fluorescence-labeled peptides of various concentrations were added thereto and reacted for 2 hours, and the amount of peptide bound to the MAVS protein was checked by fluorescence measurement.

[1] = test system: mouse sepsis models induced by LPS; test: Mouse sepsis model induced by LPS, survival; assay type: in vivo, C57BL/6 wild-type mice
Method: Specifically, 2 mg/kg and 5 mg/kg LPS were administered into the abdominal cavity of 7-week-old C57BL/6 wild-type mice every 6 hours, and 1 hour later, 0.4 mg/kg, 2 mg/kg and 10 mg/kg novel peptides were additionally administered into the abdominal cavity of the mice. Then, the survival of the mice was checked for 4 days.

With SLVLAAARW [MQP-37A6] the “inflammatory response caused by viral infection (IFN-b), compared to original MQP-37” value (interferon-beta (IFN-b)) was “significantly improved”, the “inflammatory response caused by bacterial infection (IL-6), compared with MQP-37” value (interleukin-6 (IL-6)) was “more than the original peptide MQP-37” and the “immune activation response (NF-κB phosphorylation), compared with MQP-37” value (NF-κB) was “more than the original peptide MQP-37”. The “inflammasome response caused by bacterial infection (IL-1b), sixth amino acid of MQP-37 substituted” value (IL-1b; 2 mM peptide, FIG. 10A-B) was “most effectively”, the “inflammasome response caused by bacterial infection (IL-1b), compared to original MQP-37” value (IL-1b; 5 mM or 1 mM peptide, FIG. 9A) was “significantly improved” and the “inflammasome response caused by bacterial infection (IL-1b), compared with MQP-37” value (IL-1b; FIGS. 12A-B and 12A-C) was “more than the original peptide MQP-37”. The pKd (recombinant MAVS protein) was ~3.12 and the treating sepsis [1] was “effective”.
